# Patent US8298766B2, “Fluorescent dyes, methods of synthesis and applications thereof” (priority 2010, dated 2012)
# Assays:
# [1] = system: live MCF-7 cells (human breast cancer cells); test: Imaging of live MCF-7 cells stained with compound by confocal laser scanning microscopy; assay type: cell-based; settings: 30 min at 37° C., excitation Cy5 channel (633 nm)
# Procedure: (§1) FIG. 6A is the white light image of live MCF-7 cells (human breast cancer cells) stained with compound A, 6B is the fluorescence image of live MCF-7 cells stained with compound A. The concentration of compound A is 2 μM. The equipment used is a confocal laser scanning microscope (TCS-SP2). Excitation channel: Cy5 (633 nm).
# as §1, with “FIG. 7A” for “FIG. 6A”, “compound D, 7B” for “compound A, 6B”, “compound D.” for “compound A.”, “compound D” for “compound A”, “is 1.5” for “is 2”
# as §1, with “FIG. 8A” for “FIG. 6A”, “compound E, and 8B” for “compound A, 6B”, “compound E.” for “compound A.”, “compound E” for “compound A”, “is 3” for “is 2”
# The equipment used is a confocal laser scanning microscope (TCS-SP2). Excitation channel: Cy5 (633 nm).
# (§2) MCF-7 cells are cultured in DEME (Invitrogen) supplemented with 10% FBS (Invitrogen). One day before imaging, cells are seeded in 24-well flat-bottomed plates. The next day, the live cells were incubated with 2 μM of compound A for 30 min at 37° C. under 5% CO2 and then washed with phosphate-buffered saline (PBS) three times, and then the fluorescence imaging was observed under confocal laser scanning microscopy with a 100× objective lens (excited with Cy5 channel). 1000× magnification was utilized in the imaging. The scale bar represents 20 μm. […] The equipment used is a confocal laser scanning microscope (TCS-SP2). Excitation channel: Cy5 (633 nm). The concentration of compound A is 2 μM.
# as §2, with “with 1.5” for “with 2”, “compound D” for “compound A”, “(TCS-SP2). […]” for “(TCS-SP2). Excitation channel: Cy5 (633 nm). The concentration of compound A is 2 μM.”
# MCF-7 cells are cultured in DEME (Invitrogen) supplemented with 10% FBS (Invitrogen). […] The next day, the live cells were incubated with 3 μM of compound E for 30 min at 37° C. under 5% CO2 and then washed with phosphate-buffered saline (PBS) three times, and then the fluorescence imaging was observed under confocal laser scanning microscopy with a 100× objective lens (excited with Cy5 channel). […]
# calf thymus DNA [2] = test: Fluorescence intensity before and after addition of calf thymus DNA; assay type: binding; settings: pH 7.0, 10 mM Tris-HCl buffer; dye 1 μM; calf thymus DNA 40 μg/mL
# Procedure: (§3) The ordinate is the fluorescence increasing fold. The equipment used is a spectrofluorophotometer (FP-6500). […] The concentrations of calf thymus DNA and bovine serum albumin are both 40 μg/mL.
# (§4) Finally each mixture of dye and BSA solution is diluted with pH 7.0, 10 mM Tris-HCl buffer solution to 3 mL and the fluorescence emission spectra are determined respectively after stabilization. […] Finally each mixture of dye and calf thymus DNA solution is diluted with pH 7.0, 10 mM Tris-HCl buffer solution to 3 mL and the fluorescence emission spectra are determined respectively after stabilization. […] The equipment used is a spectrofluorophotometer (FP-6500).
# calf thymus DNA [3] = test: Fluorescence emission spectra in the absence and presence of calf thymus DNA in buffer solution; assay type: binding; settings: dye 1 μM, calf thymus DNA 100 μM
# Procedure: (§5) FIG. 1 is the comparison of fluorescence emission spectra of compound A with commercially available dye EB in the absence and presence of calf thymus DNA respectively in pH 7.36, 10 mM Tris-HCl buffer. The abscissa is wavelength (nm) and the ordinate is the relative fluorescence intensity. The equipments used are a UV-Vis spectrophotometer (Hp8453) and a spectrofluorophotometer (FP-6500). The concentrations of compound A, EB and calf thymus DNA are 1 μM, 1 μM and 100 μM respectively.
# as §5, with “FIG. 2” for “FIG. 1”, “compound B” for “compound A”, “pH 7.4,” for “pH 7.36,”, “compound B,” for “compound A,”, “100 μM,” for “100 μM”
# FIG. 3 is the comparison of fluorescence emission spectra of compound C with commercially available dye EB in the absence and presence of calf thymus DNA respectively in pH 7.24, 10 mM Tris-HCl buffer. The abscissa is wavelength (nm) and the ordinate is the relative fluorescence intensity. […]
# Determinations of the fluorescence emission spectra of compound A and commercially available dye EB in the absence and presence of calf thymus DNA respectively in buffer solution
# Solutions of compound A in DMSO and EB in water are separately prepared with the concentrations of 1 mM. 3 μL of each solution is diluted with 10 mM Tris-HCl buffer solution (pH 7.36) to 3 mL in a cuvette to determine its fluorescence intensity. Solution of calf thymus DNA in water is prepared, whose concentration is determined as 1.5 mM by the adsorption at 260 nm in spectrophotometry (using the molar absorption coefficients of ε260 nm=6600 M^−1 cm^−1). […]
# Determinations of the fluorescence emission spectra of compound B and commercially available dye EB in the absence and presence of calf thymus DNA respectively in buffer solution […]
# bovine serum albumin = bovine serum albumin (Bos taurus, UniProt P02769); test: Fluorescence intensity before and after addition of bovine serum albumin; assay type: binding; settings: pH 7.0, 10 mM Tris-HCl buffer; dye 1 μM; bovine serum albumin 40 μg/mL
# Procedure: as §3, §4
# bovine serum albumin, sequence (P02769 25-607): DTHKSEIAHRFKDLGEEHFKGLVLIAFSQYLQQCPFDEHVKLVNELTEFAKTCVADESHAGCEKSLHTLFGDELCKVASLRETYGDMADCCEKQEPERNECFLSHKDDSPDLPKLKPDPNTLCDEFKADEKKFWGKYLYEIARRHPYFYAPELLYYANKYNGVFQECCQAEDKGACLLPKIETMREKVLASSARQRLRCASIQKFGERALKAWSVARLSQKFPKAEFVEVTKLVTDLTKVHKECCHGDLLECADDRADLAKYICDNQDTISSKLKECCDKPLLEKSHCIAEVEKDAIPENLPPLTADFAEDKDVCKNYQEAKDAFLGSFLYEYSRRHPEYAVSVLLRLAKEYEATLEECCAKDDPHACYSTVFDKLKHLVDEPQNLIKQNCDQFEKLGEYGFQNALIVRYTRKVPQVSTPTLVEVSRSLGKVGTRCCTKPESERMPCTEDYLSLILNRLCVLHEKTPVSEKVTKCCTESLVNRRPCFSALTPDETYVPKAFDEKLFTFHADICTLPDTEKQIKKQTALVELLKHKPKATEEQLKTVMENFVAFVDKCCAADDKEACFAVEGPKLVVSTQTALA
compound,measurement,setting,value
"CCN1C=C/C(=C\C=C\c2sc3ccccc3[n+]2CC)c2ccccc21 [M1, reference compound]",staining pattern of live MCF-7 cells (fluorescence image),[1]; 2 μM,simultaneously nucleus and cytoplasm staining
same,fluorescence intensity increase upon binding to calf thymus DNA,calf thymus DNA [2],40 fold
CCN(CC)CCCC[n+]1c(/C=C/C=C2\C=CN(CC)c3ccccc32)sc2ccccc21.[I-] [compound A],fluorescence increase upon binding to calf thymus DNA (I/I0),"calf thymus DNA [3]; pH 7.36, 10 mM Tris-HCl buffer",55 fold
same,staining pattern of live MCF-7 cells (fluorescence image),[1]; 2 μM,nucleus selective staining
same,fluorescence intensity increase upon binding to calf thymus DNA,calf thymus DNA [2],45.5 fold
same,fluorescence intensity increase with BSA solution,bovine serum albumin,1.4 fold
COc1ccc2c(c1)oc(/C=C/C=C1\C=CN(CCCN3CCCCC3)c3ccccc31)[n+]2CCCN1CCCCC1.[Br-] [compound B],fluorescence increase upon binding to calf thymus DNA (I/I0),"calf thymus DNA [3]; pH 7.4, 10 mM Tris-HCl buffer",89 fold
NCCNCCC[n+]1c(/C=C/C=C2\C=CN(CCO)c3ccccc32)sc2ccccc21 [compound C],fluorescence increase upon binding to calf thymus DNA (I/I0),"calf thymus DNA [3]; pH 7.24, 10 mM Tris-HCl buffer",75 fold
CC1(C)C(/C=C/C=C2\C=CN(Cc3ccccc3)c3ccccc32)=[N+](CCCNc2ccccc2)c2ccc(Cl)cc21.[Br-] [compound D],staining pattern of live MCF-7 cells (fluorescence image),[1]; 1.5 μM,nucleus selective staining
CCCNCC[n+]1c(/C=C/C=C2\C=CN(CCCl)c3cc(C)ccc32)[se]c2ccccc21.[Br-] [compound E],staining pattern of live MCF-7 cells (fluorescence image),[1]; 3 μM,nucleus selective staining
